In article PMC10714400, “Antimicrobial Peptide–Peptoid Hybrids with and without Membrane Disruption” (ACS Infectious Diseases, 2023):
Converted amounts (≈) assume the structure as drawn. Where a SMILES comes first, the peptide text is derived from it. [ ]: non-standard residue; d: D form. Nleu = CC(C)CNCC(=O)O; Nlys = NCCCCNCC(=O)O

Experiments:
[1] = Circular dichroism, α-helical content; format: physicochemical; conditions: 0.1 mg/mL; for CD %α with 5 mM DPC: 10 mM phosphate buffer pH 7.4, 5 mM DPC; for CD %α with 20% TFE: 10 mM phosphate buffer pH 7.4, 20% TFE
[2] = system: K. pneumoniae NCTC418
Method: (§1) Antimicrobial activity was assayed for all the peptide–peptoids against P. aeruginosa PAO1, K. pneumoniae NCTC418, E. coli W3110, A. baumannii ATCC 19606, methicillin-resistant S. aureus COL (MRSA), and for selected peptides on P. aeruginosa PA14 and the polymyxin-B-resistant derivatives PA14 4.13, PA14 4.18, PA14 2P4, as well as the clinical isolates ZEM-1A and ZEM9A, K. pneumoniae OXA-48, S. aureus Newman, Enterobacter cloacae, Stenotrophomonas maltophilia, Burkholderia cenocepacia, and Staphylococus epidermidis. To determine the Minimal Inhibitory Concentration (MIC), the Broth Microdilution method was used.[72] A colony of bacteria was picked and grown in LB medium overnight at 37 °C.
(§2) To each well was finally added 4 μL of the diluted bacterial suspension (see above), corresponding to approximately 5 × 10^5 CFU. For each test, two columns of the plate were kept for sterility control (medium only), growth control (medium with bacterial inoculum, no compound). The positive control, Polymyxin B (starting with a concentration of 16 μg/mL) in MH medium with bacterial inocula, was introduced in the two lines of the plate. The plates were incubated at 37 °C for ca. 18 h under static conditions. Next, 15 μL of 3-(4,5-dimethylthiazol-2-yl)-2,5-diphenyltetrazolium bromide (MTT)[73] (1 mg/mL in sterilized MilliQ deionized water) were added to each well, and the plates were incubated for 20–30 min at room temperature. The minimal inhibitory concentration (MIC) was defined as the lowest concentration of the compound that inhibits the visible growth of the tested bacteria (yellow) with the unaided eye.

[3] = system: PA14 4.18 (pmrB); conditions: […] MH at pH 8.5
Method: as §1, §2

[4] = system: A. baumannii ATCC19606
Method: as §1, §2

[5] = system: P. aeruginosa PAO1
Method: as §1, §2

[6] = system: E. coli W3110
Method: as §1, §2

[7] = system: PA14 4.13 (phoQ); conditions: CSV; […] MH at pH 8.5
Method: as §1, §2

[8] = system: S. aureus COL (MRSA)
Method: as §1, §2

[9] = system: PA14 2P4 (pmrB); conditions: CSV; […] MH at pH 8.5
Method: as §1, §2

[10] = system: P. aeruginosa PA14; conditions: Table S3; […] MH at pH 8.5, 16-20 hours at 37 °C
Method: as §1
as §2, with “The plates were incubated at 37 °C for ca. 18 h under static conditions.” left out

[11] = system: S. aureus Newman; conditions: Table S3; […] MH at pH 8.5
Method: as §1
as §2, with “The plates were incubated at 37 °C for ca. 18 h under static conditions.” left out

[12] = system: human red blood cells (hRBC); experiment: Minimum hemolytic concentration (MHC); format: cell-based
From the text: We also measured minimal hemolysis concentrations (MHC) on human red blood cells by serial 2-fold dilution as an indication of toxicity against eukaryotic cells (Table 1).

CC(C)C[C@H](NC(=O)[C@H](CCCCN)NC(=O)[C@@H](N)CCCCN)C(=O)N[C@@H](CC(C)C)C(=O)N[C@@H](CCCCN)C(=O)N(CC(=O)N(CC(=O)N(CCCCN)CC(=O)N(CC(=O)N(CC(=O)N(CC(N)=O)CC(C)C)CC(C)C)CC(C)C)CC(C)C)CC(C)C [EB4, KKLLKllklll] (H-KKLLK[Nleu][Nleu][Nlys][Nleu][Nleu][Nleu]-NH2)
CD %α with 5 mM DPC ([1]; DichroWeb, Contin-LL): 9% | CD %α with 20% TFE ([1]; DichroWeb, Contin-LL): 11% | CD %α with 5 mM DPC ([1]; Table S2): 9% | CD %α with 20% TFE ([1]; Table S2): 11% | MIC K. pneumoniae NCTC418, full MH at pH 7.4 ([2]; NCTC418, 4 h, pH 7.4): >32 ug/mL | MIC K. pneumoniae NCTC418 […] 7.4 ([2]; Table S2, […] MH, pH 7.4): > 32 µg/mL | MIC K. pneumoniae NCTC418 […] 8.5 ([2]; Table S2, […] MH, pH 8.5): 32 µg/mL (≈ 24.2 µM) | MIC K. pneumoniae NCTC418 Full MH 7.4 ([2]; Table S2, full MH, pH 7.4): > 32 µg/mL | MIC K. pneumoniae NCTC418 Full MH 8.5 ([2]; Table S2, full MH, pH 8.5): 16 µg/mL (≈ 12.1 µM) | MIC P. aeruginosa PA14 4.18, […] MH at pH 8.5 ([3]; CSV): 24 ug/mL | MIC P. aeruginosa PA14 4.18 ([3]; Table S3): 16 to 32 µg/mL | MIC A. baumannii ATCC19606, full MH at pH 7.4 ([4]; ATCC19606, 4 h, pH 7.4): >32 ug/mL | MIC A. baumannii ATCC19606 […] 7.4 ([4]; Table S2, […] MH, pH 7.4): 32 µg/mL (≈ 24.2 µM) | MIC A. baumannii ATCC19606 […] 8.5 ([4]; Table S2, […] MH, pH 8.5): 16 µg/mL (≈ 12.1 µM) | MIC A. baumannii ATCC19606 Full MH 7.4 ([4]; Table S2, full MH, pH 7.4): > 32 µg/mL | MIC A. baumannii ATCC19606 Full MH 8.5 ([4]; Table S2, full MH, pH 8.5): 16 µg/mL (≈ 12.1 µM) | MIC P. aeruginosa PAO1, full MH at pH 7.4 ([5]; PAO1, 4 h, pH 7.4): >32 ug/mL | MIC P. aeruginosa PAO1 […] 8.5 ([5]; Table S2, […] MH, pH 8.5): 4 µg/mL (≈ 3.03 µM) | MIC P. aeruginosa PAO1 Full MH 7.4 ([5]; Table S2, full MH, pH 7.4): > 32 µg/mL | MIC E. coli W3110, […] MH at pH 7.4 ([6]; CSV, […] MH at pH 7.4): 8 ug/mL | MIC E. coli W3110, full MH at pH 7.4 ([6]; CSV, full MH at pH 7.4): >32 ug/mL | MIC E. coli W3110, full MH at pH 8.5 ([6]; CSV, full MH at pH 8.5): 8 ug/mL | MIC E. coli W3110 […] 7.4 ([6]; Table S2, […] MH, pH 7.4): 8 µg/mL (≈ 6.05 µM) | MIC E. coli W3110 […] 8.5 ([6]; Table S2, […] MH, pH 8.5): 2 µg/mL (≈ 1.51 µM) | MIC E. coli W3110 Full MH 7.4 ([6]; Table S2, full MH, pH 7.4): > 32 µg/mL | MIC E. coli W3110 Full MH 8.5 ([6]; Table S2, full MH, pH 8.5): 8 µg/mL (≈ 6.05 µM) | MIC P. aeruginosa PA14 4.13, […] MH at pH 8.5 [7]: 8 ug/mL | MIC S. aureus COL (MRSA), full MH at pH 7.4 ([8]; COL, 4 h, pH 7.4): >32 ug/mL | MIC S. aureus COL (MRSA) […] 7.4 ([8]; Table S2, […] MH, pH 7.4): 32 µg/mL (≈ 24.2 µM) | MIC S. aureus COL (MRSA) Full MH 7.4 ([8]; Table S2, full MH, pH 7.4): > 32 µg/mL | MIC S. aureus COL (MRSA) Full MH 8.5 ([8]; Table S2, full MH, pH 8.5): 16 µg/mL (≈ 12.1 µM) | MIC P. aeruginosa PA14 2P4, […] MH at pH 8.5 [9]: 16 ug/mL | MIC P. aeruginosa PA14 [10]: 4 µg/mL (≈ 3.03 µM) | MIC S. aureus Newman [11]: 8 µg/mL (≈ 6.05 µM) | Hemolysis [12]: none of them showed any measurable hemolysis | MHC [12]: >2000 µg/mL
